In a melting point compilation (Tetko et al.; mined from patent text by program, amines drawn as free bases though some values may be those of a salt):

Compound `CCCCSc1cnc2c(c1)CCC(c1ccc(Cl)c(Cl)c1)O2` (centres undefined) has a melting point of 59.5 to 61 °C. Work on `CN(Cc1sc2c(=O)c(C(=O)NCc3ccc(Cl)cc3)cn(C)c2c1COCC[Si](C)(C)C)CC(O)c1cc2ccccc2o1` (centres undefined) yielded a melting point of 157 to 159 °C. For `COc1cc(O)cc(CN2C(=O)N(c3cnn(Cc4c(C)noc4C)c3)C(=O)C2(C)C)c1`, the melting point was 72 to 74 °C. In the case of `CC(C)(C)OC(=O)C(=[N+]=[N-])C(=O)C(SCc1ccccc1)C1CC(=O)N1` (centres undefined), the melting point is reported as 119 °C. With `O=S(=O)(c1ccc(Cl)cc1)C(Cc1ccncc1)c1cc(F)ccc1F` (centres undefined) the melting point was 129 °C. With `CC(C)OC(=O)c1cc(-n2c(=O)c3c(n(C)c2=O)CCCC3)ccc1Cl` the melting point was 136 to 138 °C. With `O=C1Cc2cc(C3=NNC(=O)C4CCC34)ccc2N1` (centres undefined) the melting point was 309 to 312 °C. Work on `COc1ccc2c(c1)CC[C@@H]1[C@@H]2CC[C@@]2(C)[C@H]1CCC21CC(O)CO1` (some centres undefined) yielded a melting point of 95 to 97 °C. For `CCNc1ncc(-c2cc(Cl)cc(Cl)c2Cl)c(N)n1`, the melting point was 149 to 152 °C. `OCC(CO)c1cccc2ccccc12` gave a melting point of 58 to 60 °C. For `CC(=O)C(C(=O)Nc1ccccc1)C(C)C` (centres undefined), the melting point was 135 to 137 °C. In the case of `CCCCCOc1c(OC)cc([N+](=O)[O-])c2nccc(C)c12`, the melting point is reported as 54 to 55 °C. `COCOc1nn(-c2ccccc2)cc1/C=C/c1csc(C(C)(C)C)n1` showed a melting point of 112 to 113 °C. In the case of `O=C1CCC(N2C(=O)c3cccc(CNC(=O)Nc4cccc(Cl)c4)c3C2=O)C(=O)N1` (centres undefined), the melting point is reported as 193 to 195 °C. Work on `CCCCn1c(=O)n(Cc2ccccc2)c(=O)c2c(Cl)cc(Cl)cc21` yielded a melting point of 108 to 110 °C. With `CC(CCc1ccc(Cl)cc1)(Cn1ccnc1)Sc1cc(Cl)ccc1Cl` (centres undefined) the melting point was 150 °C. In the case of `CCOc1ccc(Nc2nc(=O)cc(N)n2-c2ccccc2)cc1`, the melting point is reported as 111 to 113 °C. With `O=C1NCCOc2c1sc1ccccc21` the melting point was 244 to 245 °C. With `OCc1ccc2c(c1)ncn2-c1cccc(-c2cccnc2)c1` the melting point was 183 to 185 °C. With `COc1ccc(C2(O)c3cc(NC(=O)CC(C)(C)C)c(C)c(C)c3OC2(C)C)c(OC)c1` (centres undefined) the melting point was 150 to 151 °C. Work on `C=CC(=O)c1cc(OC)c(OC)c(OC)c1` yielded a melting point of 46 to 47 °C. With `COc1cccc(SCCF)c1S(N)(=O)=O` the melting point was 127 °C. `CC1(C(=O)Nc2cnc(Cl)c(Cl)c2)CC1` gave a melting point of 115 to 117 °C. In the case of `CCCCCCCCCCOc1cc2c(cc1CCC(=O)O)C(=O)c1cc(C(=O)O)ccc1-2`, the melting point is reported as 218 to 220 °C. `Cc1nc(Cl)c(-c2ccc(Cl)cc2)c(NS(=O)(=O)c2ccc(Cl)cc2)n1` showed a melting point of 196 to 197 °C. Work on `O=C(O)CN1C(=O)C(=Cc2ccc(O)cc2)SC1=S` yielded a melting point greater than 300 °C. For `COc1cc(C(=O)NCCC2Cc3c(C)c(OCc4ccccc4)c(C)c(C)c3O2)cc(OC)c1OC` (racemic), the melting point was 171 to 173 °C. `CN1CCN(CCCNc2ccc(-n3cc(C(F)(F)F)ccc3=O)c(Cl)c2)CC1` gave a melting point of 129 to 132 °C. Compound `Nc1c(Cl)cc(C(O)CNCCCCCOCCc2ccccn2)cc1Cl` (centres undefined) has a melting point of 140 to 142 °C. `Cc1ccc2nc(C)n(C3CCC(=O)NC3=O)c(=O)c2c1` (centres undefined) showed a melting point of 270 to 272 °C. `O=C(O)c1ccccc1N1C(=O)c2cccc([N+](=O)[O-])c2C1=O` showed a melting point of 190 to 192 °C. Work on `Cn1cc(C(=O)Cl)c([N+](=O)[O-])n1` yielded a melting point of 68 to 70 °C. Work on `O=C(O)c1cn(C2CC2)c2c(F)c(N3CC(C(=O)O)C3)c(F)cc2c1=O` yielded a melting point of 251 to 255 °C. Work on `CS(=O)(=O)N(Cc1cccnc1)c1ccccc1` yielded a melting point of 104 to 105 °C. In the case of `CC=CCn1c(C)c(CCCCC)c2cnnc(OCc3ccc(F)cc3)c21`, the melting point is reported as 65 to 69 °C. Compound `O=C(c1ccccc1)c1cc([N+](=O)[O-])ccc1NC1CC1` has a melting point of 125 °C. `CCN(C(=O)Nc1ccccc1)c1cccc(-c2ccc(CC3SC(=O)NC3=O)cc2)c1` (centres undefined) showed a melting point of 186 °C. With `CN(C(=O)CBr)c1ccc(Cl)cc1C(=O)c1ccccc1Cl` the melting point was 86 °C. With `Cc1cccc2c1N=C(Cl)c1cscc1O2` the melting point was 160 to 161 °C. For `CC(=O)Nc1cc(C)cc(C=O)n1`, the melting point was 202 °C. In the case of `CN(C)C(=O)C(CCO)C1CCc2c1[nH]c1ccccc21` (centres undefined), the melting point is reported as 118 to 120 °C. Work on `COc1ccc(S(=O)(=O)N2C(=O)C(c3ccccc3OC)(N3C[C@H](OCC(=O)NC(C)(CO)CO)C[C@H]3C(=O)N(C)C)c3cc(Cl)ccc32)c(OC)c1` (some centres undefined) yielded a melting point of 154 °C. With `CCCCN(CCCC)CCCOc1ccc(S(=O)(=O)c2c(C(C)(C)C)cn3ccccc23)cc1` the melting point was 90 to 92 °C. `CC(=O)OC1CSC(Sc2ccc(C(C)=O)cc2)C(OC(C)=O)C1OC(C)=O` (centres undefined) gave a melting point of 122 °C. Compound `Fc1ccc(Nc2ccnc3cc(Cl)ccc23)cc1` has a melting point of 214 to 216 °C. In the case of `CCOC[C@@H]1CNCC[C@@H]1c1ccc(Cl)c(Cl)c1`, the melting point is reported as 68 to 70 °C. Compound `CCOC(=O)c1ncc2[nH]c3cccc(CO)c3c2c1COC` has a melting point of 139 to 140 °C. In the case of `CCc1nc(-c2cccc(C)c2)c(-c2ccnc(NC(=O)Cc3ccccc3)c2)s1`, the melting point is reported as 107 to 108 °C. `O=C1CCC(N2Cc3c(CNC(=O)Nc4ccc(Cl)c(Cl)c4)cccc3C2=O)C(=O)N1` (centres undefined) showed a melting point of 253 to 255 °C. Compound `Cc1cn2nc(Cl)ccc2n1` has a melting point of 131 °C. `CCOC(=O)CC1=C(O)c2sccc2S(=O)(=O)N1C` gave a melting point of 161 to 163 °C. In the case of `CNC(=O)N(O)C(C)C#Cc1ccc(C(C)C)cc1` (centres undefined), the melting point is reported as 146 to 147 °C. With `CC(c1cn(C)c2ccccc12)N(O)C(N)=O` (centres undefined) the melting point was 149 to 150 °C. With `CC(C)Cc1ccc(CCc2cc3c(s2)NC(=O)C(c2ccccc2)N=C3c2ccccc2Cl)cc1` (centres undefined) the melting point was 201 to 203 °C. For `COc1cccc2c1nc(C1CC1)n2CC=C(C)C`, the melting point was 41 to 42 °C. For `Cc1nc2c(-c3cccc(N4CCC(N5CCCC5)CC4)c3)cnn2c(N)c1-c1ccc(F)cc1`, the melting point was 244 to 249 °C. With `CN(C)C1(c2ccccc2)CCC(=CC(=O)NCc2ccccc2)CC1` (centres undefined) the melting point was 145 to 148 °C. Work on `Cc1ccc([N+](=O)[O-])cc1Nc1cc(Cl)ccn1` yielded a melting point of 130 to 133 °C. For `O=C(O)c1cn(CCc2ccc(C(F)(F)F)cc2)c2cc(C3CC3)nn2c1=O`, the melting point was 225 to 230 °C. For `CN(CCc1ccc(Nc2ncc3c(n2)-c2ccccc2[C@H](c2ccc(F)cc2)C3)cc1)C1CCCCC1`, the melting point was 160 to 162 °C. For `CN1CCC(=O)N(c2ccc(Cl)cc2Cl)C1=O`, the melting point was 122 to 125 °C. `COc1cccc(CNC(=O)c2nc3ccc(F)c(OCCc4ccc(-n5cn[nH]c5=O)cc4)c3c(=O)[nH]2)c1` showed a melting point of 196 to 198 °C. For `O=C(Nc1ccc(-n2nc(C3CC3)cc2C2CC2)c(F)c1)c1c(Cl)cncc1Cl`, the melting point was 280 to 281 °C. `Cc1cc(NC(=O)c2ccccc2O)cc(Cl)c1O` gave a melting point of 192 to 194 °C. `CCN(CC)c1ccc([N+](=O)[O-])cc1C#N` gave a melting point of 83 to 85 °C. Work on `CC(C)(COC(=O)c1cc(Cl)c(O)c(Cl)c1)COC(=O)c1cc(Cl)c(O)c(Cl)c1` yielded a melting point of 180 to 181 °C. `Clc1ncc(-c2ccsc2)cn1` gave a melting point of 154 to 157 °C. With `CCCOC(C(Cc1ccc(Cl)cc1)n1cncn1)C1(C)COCOC1` (centres undefined) the melting point was 94 to 96 °C. In the case of `Cc1ccn2c(C)c(CCc3ccc4nc(N)oc4c3)nc2c1`, the melting point is reported as 244 to 246 °C. Compound `COCCn1cc(C(=O)C(F)(F)F)c2c(Cl)cccc21` has a melting point of 57 to 59 °C. With `COC(=O)c1cc(OC(=S)N(C)C)c2cc(-c3ccc(OC)c(C45CC6CC(CC(C6)C4)C5)c3)ccc2c1C` the melting point was 137 to 138 °C. Work on `CSc1nc(N)c2ncn(C3CCCCC3)c2n1` yielded a melting point of 222 to 224 °C. With `COc1ccc(N2CCOCC2)c2sc(C(=O)O)nc12` the melting point was 99 to 100 °C. `CC(C)(C)c1cc(-c2nn(CCOC(=O)c3cccnc3)c3ncccc23)cc(C(C)(C)C)c1O` showed a melting point of 134 to 136 °C. In the case of `O=C(O)c1ccc(NCc2cc(Br)ccc2CCc2ccccc2)cc1`, the melting point is reported as 132 to 134 °C. For `CCOC(=O)C(=O)N1CCN(c2ccccc2C(C)(C)C)CC1`, the melting point was 95 to 98 °C. Compound `CCc1cc2c(-c3ccccc3Cl)c(NC(=O)C=Cc3cc(OC)c(OC(C)=O)c(OC)c3)cnc2s1` has a melting point of 133 to 135 °C. `CC(C)(C)c1ccc(S(=O)(=O)N2c3ccccc3C[C@H]2C(=O)NCc2cccc(OCCC(=O)O)c2)cc1` showed a melting point of 122 °C. `Clc1cccc(-c2nc3cccc(NCc4ccccn4)c3o2)c1` showed a melting point of 115 to 116 °C. Compound `CCOC(=O)C1=C(COC2CCN(C)CC2)NC(C)=C(C(=O)OC)C1c1cccc(C(F)(F)F)c1Cl` (centres undefined) has a melting point of 180 to 181 °C. For `COc1ccc2cccc(CCNC(C)=O)c2c1`, the melting point was 108 °C. Compound `CNC(=O)Oc1ccc(NC(=O)COC)c(C)c1` has a melting point of 130 to 132 °C. `CC1(C)C=NC(C(NC(c2ccccc2)(c2ccccc2)c2ccccc2)C(=O)O)S1` (centres undefined) gave a melting point of 180 to 182 °C. In the case of `CCCCCCN(CCC12CC3CC(CC(C3)C1)C2)C(=O)NCCCc1ccncc1`, the melting point is reported as 120 to 122 °C. In the case of `NS(=O)(=O)c1ccc(Cl)c(NC(=O)c2cnn3c(C(F)F)cc(-c4ccc(C(F)(F)F)cc4)nc23)c1`, the melting point is reported as 286 °C. Compound `CC1CC(C)N(CCCNC(=O)CN2CCCC2=O)C(C)(C)C1` (centres undefined) has a melting point of 85 to 87 °C. With `FC(F)(F)c1n[nH]c(-c2nc3ccccc3[nH]2)n1` the melting point was 247 °C. For `CC#CCOc1ccc(S(=O)(=O)NC(C(=O)NO)C(C)(C)SCCN2CCOCC2)cc1` (centres undefined), the melting point was 72 °C. Work on `CC(=O)NC[C@H](O)CC(=O)NN` yielded a melting point of 178 °C. With `COC(=O)CCc1cc2cc(Cl)ccc2n1S(=O)(=O)c1ccc2nc(NC(C)=O)sc2c1` the melting point was 217 to 221 °C. `Cn1ccc2cc(NC(=O)c3cc4cc(F)ccc4n3Cc3cccc(F)c3)ccc21` gave a melting point of 187 to 189 °C. `Cc1cc(C)n(-c2nc(Nc3ccccc3Cl)c3ccccc3n2)n1` showed a melting point of 210 to 217 °C. Work on `O=C(NC1CCN(C(=O)c2ccccc2)CC1)c1ccccc1Oc1ccc(Cl)cc1Cl` yielded a melting point of 63 to 66 °C. In the case of `Cn1ncnc1COc1nc2c(cc1C1CCC1)nnn2-c1c(F)cccc1F`, the melting point is reported as 140 to 144 °C. `N#CC1=C(c2ccc3ccccc3c2)Nc2n[nH]cc2C1c1cccc2nonc12` (centres undefined) showed a melting point of 228 °C. `CCC1c2ccccc2-c2sccc2N1S(=O)(=O)c1ccc(O)cc1` (centres undefined) showed a melting point of 169 to 171 °C. Work on `CC(C)C(=O)Nc1ccc(C(=O)O)cc1N` yielded a melting point of 159 to 160 °C. Work on `CCNC(=O)c1c(C)cccc1N(C)C(C)(C)C` yielded a melting point of 101 to 103 °C. With `FC(F)(F)c1cc(Cl)c(-c2nc(Br)c(Br)[nH]2)c(Cl)c1` the melting point was 328 to 329 °C.
